Source: US9701681B2, “Fused ring heteroaryl compounds and their use as Trk inhibitors” (CMG Pharmaceutical Co., Ltd., priority 2014, dated 2017)

How the values were obtained:
[1] = test system: TF-1 cells; experiment: Cell proliferation assay (TF-1); settings: 10 ng/ml human β-NGF, 72 hours exposure, read-out: IC50 (nM) Cell-based assay (TF-1)
Procedure: Doxorubicin was purchased from Sigma Aldrich (D1515). All compounds were diluted in DMSO (Sigma Aldrich, D2650). AlamarBlue® cell viability reagent was purchased from Thermo Scientific (88952). CellTiter 96® AQueous One Solution Cell proliferation assay was purchased from Promega. KM12-luc cells were obtained from JCRB (National Institute of Health Sciences, Tokyo, Japan). They were maintained in DMEM medium (GIB-11965-118) supplemented with 10% fetal bovine serum (Gibco, 16000-044) and MEM Non-Essential Amino Acids Solution (Thermo Scientific, 11140-050). TF-1 cells were obtained from ATCC. They were maintained in RPMI medium (GIB-A10491) supplemented with 10% fetal bovine serum (Gibco, 16000-044), GM-CSF (Thermo Scientific, 11140-050), and β-NGF (R&D systems). Trypsin/EDTA was purchased from Gibco (GIB-25300-054, 0.05%). 96-well plates were purchased from Corning Inc.
The proliferation assay was performed for Chemical Compounds 1-61 s in media supplemented with 10% FBS, using AlamarBlue® cell viability reagent or CellTiter 96® AQueous One Solution Cell proliferation assay kit. Cells were cultured in humidified 37° C. incubator with 5% CO2. To evaluate the antiproliferation activity of compounds, TF-1 cells were adjusted to GM-CSF free media (RPMI, 10% FBS, and 1% penicillin-streptomycin) for 16 hr and were seeded in 96-well plates at 30,000 cells/well with medium (RPMI, 10% FBS, 1% penicillin-streptomycin and 10 ng/ml human β-NGF). KM12-luc were seeded at 10,000 cells per well into 96-well plates. After overnight incubation, serial dilutions of compounds were added to triplicate wells, and cells were exposed for 72 hours. The final concentration of DMSO was adjusted to 0.5% in media. Quantitation of cell growth was assessed using two kinds of reagent. 20 ul of AlamarBlue® reagent in an amount equal to 10% of the culture volume was added to each well and were incubated in humidified 37° C. incubator with 5% CO2 for 2 hr. Otherwise, 20 ul of CellTiter 96® reagent was added to each well and were incubated in the same conditions as previously described. Data were plotted, and GI50 values were calculated using GraphPad software. Table 1 below includes the results of the assays.

[2] = target: T1, TRK A, B & C kinase; experiment: TRK A, B & C kinase assay (ADP-Glo / HTRF KinEASE-TK); assay type: biochemical; settings: ADP-Glo or HTRF KinEASE-TK kit, isoform not specified, read-out: IC50 (nM) Enzymatic assay
T1 construct: fused on or other part: Carna's Trk kinases are usually GST-tagged cytoplasmic domains
Method in brief: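 ADP-Glo: TrkA/B/C (0.4/0.5/3 ng/ul) with poly(Glu,Tyr), 1 h at 30° C, luminescence readout. HTRF: TRKA/B/C (0.3/0.1/0.03 ng/ul) at ATP 14.7/4.77/25.6 uM with TK-substrate, compound 0–100 nM for 40 min at RT, then detection by 665/620 ratio. Both give IC50 by curve fit.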

[3] = test system: KM12-luc cells; experiment: Cell proliferation assay (KM12); settings: 72 hours exposure, read-out: IC50 (nM) Cell-based assay (KM12)
Method in brief: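 KM12-luc cells were seeded at 10,000/well. TF-1 cells were first held 16 hr without GM-CSF, then seeded at 30,000/well with 10 ng/ml human β-NGF. Cells were exposed in triplicate to serial dilutions for 72 h in 10% FBS with 0.5% DMSO at 37 °C, read by AlamarBlue or CellTiter 96 for 2 hr, and GI50 was fitted.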

| Structure (SMILES) | IC50 [2] [nM] | IC50 [1] [nM] | IC50 [3] [nM] |
| --- | --- | --- | --- |
| CCNC(=O)/C=C/c1cnn2ccc(N3CCCC3c3cc(F)ccc3F)nc12 (stereo not drawn) [Chemical Compound 41, (E)-3-(5-(2-(2,5-difluorophenyl)pyrrolidin-1-yl)pyrazolo[1,5-a]pyrimidin-3-yl)-N-ethylacrylamide] | < 10 | < 100 | < 100 |
| CC(C)NC(=O)/C=C/c1cnn2ccc(N3CCCC3c3cc(F)ccc3F)nc12 (stereo not drawn) [Chemical Compound 42, (E)-3-(5-(2-(2,5-difluorophenyl)-pyrrolidin-1-yl)pyrazolo[1,5-a]pyrimidin-3-yl)-N-isopropylacrylamide] | < 10 | < 100 | < 100 |
| O=C(/C=C/c1cnn2ccc(N3CCCC3c3cc(F)ccc3F)nc12)NC1CC1 (stereo not drawn) [Chemical Compound 43, (E)-N-cyclopropyl-3-(5-(2-(2,5-difluorophenyl)pyrrolidin-1-yl)pyrazolo[1,5-a]pyrimidin-3-yl)acrylamide] | < 10 | < 100 | < 100 |
| CC(C)(C)NC(=O)/C=C/c1cnn2ccc(N3CCCC3c3cc(F)ccc3F)nc12 (stereo not drawn) [Chemical Compound 44, (E)-N-tert-butyl-3-(5-(2-(2,5-difluorophenyl)pyrrolidin-1-yl)pyrazolo-[1,5-a]pyrimidin-3-yl)acrylamide] | < 10 | < 100 | < 100 |
| CN(C)C(=O)/C=C/c1cnn2ccc(N3CCCC3c3cc(F)ccc3F)nc12 (stereo not drawn) [Chemical Compound 45, (E)-3-(5-(2-(2,5-difluorophenyl)pyrrolidin-1-yl)pyrazolo[1,5-a]pyrimidin-3-yl)-N,N-dimethylacrylamide] | < 10 | < 100 | < 100 |
| COCCNC(=O)/C=C/c1cnn2ccc(N3CCCC3c3cc(F)ccc3F)nc12 (stereo not drawn) [Chemical Compound 46, (E)-3-(5-(2-(2,5-difluorophenyl)pyrrolidin-1-yl)pyrazolo[1,5-a]pyrimidin-3-yl)-N-(2-methoxyethyl)-acrylamide] | < 10 | < 100 | < 100 |
| O=C(/C=C/c1cnn2ccc(N3CCCC3c3cc(F)ccc3F)nc12)N1CC(O)C1 (stereo not drawn) [Chemical Compound 47, (E)-3-(5-(2-(2,5-difluorophenyl)pyrrolidin-1-yl)pyrazolo[1,5-a]pyrimidin-3-yl)-1-(3-hydroxyazetidin-1-yl)prop-2-en-1-one] | < 10 | < 100 | < 100 |
| O=C(/C=C/c1cnn2ccc(N3CCC[C@@H]3c3cc(F)ccc3F)nc12)NCCO [Chemical Compound 48, (R,E)-3-(5-(2-(2,5-difluorophenyl)pyrrolidin-1-yl)pyrazolo[1,5-a]pyrimidin-3-yl)-N-(2-hydroxyethyl)-acrylamide] | < 10 | < 100 | < 100 |

Further lines, with some results ahead:

| IC50 [2] [nM] | Structure (SMILES) | IC50 [1] [nM] | IC50 [3] [nM] |
| --- | --- | --- | --- |
| < 10 | O=C(/C=C/c1cnn2ccc(N3CCC[C@@H]3c3cc(F)ccc3F)nc12)N1CCOCC1 [Chemical Compound 49, (R,E)-3-(5-(2-(2,5-difluorophenyl)pyrrolidin-1-yl)pyrazolo[1,5-a]pyrimidin-3-yl)-1-morpholinoprop-2-en-1-one] | < 10 | < 100 |
| < 10 | O=C(/C=C/c1cnn2ccc(N3CCC[C@@H]3c3cc(F)ccc3F)nc12)N1CCNCC1 [Chemical Compound 50, (R,E)-3-(5-(2-(2,5-difluorophenyl)pyrrolidin-1-yl)pyrazolo[1,5-a]pyrimidin-3-yl)-1-(piperazin-1-yl)prop-2-en-1-one] | < 100 | < 10 |
| < 10 | O=C(C#Cc1cnn2ccc(N3CCCC3c3cc(F)ccc3F)nc12)N1CCOCC1 (stereo not drawn) [Chemical Compound 61, 3-(5-(2-(2,5-difluorophenyl)pyrrolidin-1-yl)pyrazolo[1,5-a]pyrimidin-3-yl)-1-morpholinoprop-2-yn-1-one] | < 100 | < 100 |
